The values below are quoted from earlier work in patent US20160194352A1, “AMORPHOUS FORMS OF DACLATASVIR DIHYDROCHLORIDE” (Dr.Reddy's Laboratories Ltd., priority 2015, published 2016).

For this data set, the system named is HCV. As to conditions: HCV infected patients, combination therapy.

Take alpha-interferon and ribavirin: the “sustained efficacy, share of patients” value is 40% of patients.
